# Measurements taken from patent publication US10723741B1, “DNA polymerase IIIC inhibitors and use thereof” (Acurx Pharmaceuticals, LLC, priority 2018, dated 2020).
# Like-named read-outs stand apart in the source and are kept apart here.
# What was measured:
# Type in all cases: cell-based
# [1] = tested on: Enterococcus faecalis ATCC 29212; assay: Broth microdilution MIC, E. faecalis ATCC 29212; details: ATCC29212, broth microdilution, 37° C., 20 hours, read-out: MIC E. faecalis ATCC 29212
# Summary of the method: (§1)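 Broth microdilution in strain-specific test medium with ~5.0×10^5 cfu/ml inoculum, 1% DMSO and two-fold compound dilutions from 64 to 0.0625 μg/ml. Plates were held 20 hours at 37° C in ambient air. S. pneumoniae colonies were grown beforehand on blood agar in 5% CO2.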
# [2] = tested on: Staphylococcus aureus NRS384 (MRSA); assay: Broth microdilution MIC, S. aureus NRS384 (MRSA); design: MIC NRS 384 (MRSA): unit not given here; details: broth microdilution, 37° C., 20 hours; for MIC: Staphylococcus aureus
# Summary of the method: as §1
# [3] = tested on: Streptococcus pneumoniae ATCC 49619; assay: Broth microdilution MIC, S. pneumoniae ATCC 49619; details: ATCC49619, broth microdilution, 37° C., 20 hours, read-out: MIC S. pneumoniae ATCC 49619
# Summary of the method: as §1
# [4] = tested on: Escherichia coli ATCC 25922; assay: Broth microdilution MIC, E. coli ATCC 25922 (MHIIB w & w/o 4 mM EDTA); details: broth microdilution, 37° C., 20 hours; for MIC: Escherichia coli, ATCC25922, without EDTA, read-out: MIC E. coli ATCC 25922; for MIC E. coli ATCC 25922 + 4 mM EDTA: with 4 mM EDTA
# Summary of the method: as §1
# [5] = tested on: Bacillus subtilis ATCC 6633; assay: Broth microdilution MIC, B. subtilis ATCC 6633; details: ATCC6633, broth microdilution, 37° C., 20 hours, read-out: MIC B. subtilis ATCC 6633
# Summary of the method: as §1
# [6] = tested on: Staphylococcus aureus ATCC 29213 (MSSA); assay: Broth microdilution MIC, S. aureus ATCC 29213 (MSSA); details: broth microdilution, 37° C., 20 hours, read-out: MIC S. aureus ATCC 29213 (MSSA)
# Summary of the method: as §1
# [7] = tested on: Enterococcus faecium ATCC 700221 (VRE); assay: Broth microdilution MIC, E. faecium ATCC 700221 (VRE); design: MIC E. faecium ATCC 700221 (VRE): unit: ug/mL; details: broth microdilution, 37° C., 20 hours; for MIC: Enterococcus faecium
# Summary of the method: as §1
# [8] = read-out: MIC E. faecium ATCC 700221 (VRE)
SMILES,MIC [1],MIC ([2]; read-out: MIC NRS 384 (MRSA)),MIC [3],MIC [4],MIC E. coli ATCC 25922 + 4 mM EDTA [4],MIC [5],MIC [6],"MIC [7, 8]",MIC NRS 384 (MRSA) [2],MIC E. faecium ATCC 700221 (VRE) [7],"MIC ([2]; MHIIB, read-out: MIC against S. aureus NRS 384 (MRSA))","MIC ([7]; MHIIB, read-out: MIC against E. faecium ATCC 700221 (VRE))"
"CN(C)C(=O)c1nn(C)c2c(=O)[nH]c(NCc3ccc(Cl)c(Cl)c3)nc12 [Compound 43, 5-((3,4-Dichlorobenzyl)amino)-N,N, 1-trimethyl-7-oxo-6,7-dihydro-1H-pyrazolo[4,3-d]pyrimidine-3-carboxamide]",> 64 µg/mL,> 64 µg/mL,64 µg/mL,> 64 µg/mL,>64 µg/mL,64 µg/mL,> 64 µg/mL,> 64 µg/mL,–,–,–,–
"Cn1nc(C#N)c2nc(NCc3ccc(Cl)c(Cl)c3)[nH]c(=O)c21 [Compound 45, 5-((3,4-dichlorobenzyl)amino)-1-methyl-7-oxo-6,7-dihydro-1H-pyrazolo[4,3-d]pyrimidine-3-carbonitrile]",4 µg/mL,–,16 µg/mL,> 64 µg/mL,64 µg/mL,2 µg/mL,4 µg/mL,–,4/4,2/2,–,–
"Cn1nc(C2C=CCO2)c2nc(NCc3ccc(Cl)c(Cl)c3)[nH]c(=O)c21 (centres unmarked) [Compound 46, 5-((3,4-dichlorobenzyl)amino)-3-(2,5-dihydrofuran-2-yl)-1-methyl-1H-pyrazolo[4,3-d]pyrimidin-7(6H)-one]",16 µg/mL,8 µg/mL,16 µg/mL,> 64 µg/mL,>64 µg/mL,4 µg/mL,4 µg/mL,8 µg/mL,–,–,–,–
"Cn1nc(C2CCCO2)c2nc(NCc3ccc(Cl)c(Cl)c3)[nH]c(=O)c21 (centres unmarked) [Compound 47, 5-((3,4-dichlorobenzyl)amino)-1-methyl-3-(tetrahydrofuran-2-yl)-1H-pyrazolo[4,3-d]pyrimidin-7(6H)-one]",> 64 µg/mL,16 µg/mL,32 µg/mL,> 64 µg/mL,>64 µg/mL,8 µg/mL,16 µg/mL,16 µg/mL,–,–,–,–
"Cn1nc(CCO)c2nc(NCc3ccc(Cl)c(Cl)c3)[nH]c(=O)c21 [Compound 48, 5-((3,4-dichlorobenzyl)amino)-3-(2-hydroxyethyl)-1-methyl-1H-pyrazolo[4,3-d]pyrimidin-7(6H)-one]",16 µg/mL,4 µg/mL,4 µg/mL,> 64 µg/mL,>64 µg/mL,4 µg/mL,8 µg/mL,8 µg/mL,–,–,–,–
"CCOCCc1nn(C)c2c(=O)[nH]c(NCc3ccc(Cl)c(Cl)c3)nc12 [Compound 49, 5-((3,4-dichlorobenzyl)amino)-3-(2-ethoxyethyl)-1-methyl-1H-pyrazolo[4,3-d]pyrimidin-7(6H)-one]",> 64 µg/mL,8 µg/mL,16 µg/mL,> 64 µg/mL,>64 µg/mL,8 µg/mL,16 µg/mL,16 µg/mL,–,–,–,–
"O=c1[nH]c(NCc2ccc(Cl)c(Cl)c2)nc2c(-c3ncco3)nn(CCOCCO)c12 [Compound 50, 5-((3,4-dichlorobenzyl)amino)-1-(2-(2-hydroxyethoxy)ethyl)-3-(oxazol-2-yl)-1H-pyrazolo[4,3-d]pyrimidin-7(6H)-one]",> 64 µg/mL,> 64 µg/mL,> 64 µg/mL,> 64 µg/mL,>64 µg/mL,> 64 µg/mL,> 64 µg/mL,> 64 µg/mL,–,–,–,–
"N#Cc1nn(CCOCCO)c2c(=O)[nH]c(NCc3ccc(Cl)c(Cl)c3)nc12 [Compound 51, 5-((3,4-dichlorobenzyl)amino)-1-(2-(2-hydroxyethoxy)ethyl)-7-oxo-6,7-dihydro-1H-pyrazolo[4,3-d]pyrimidine-3-carbonitrile]",2 µg/mL,2 µg/mL,2 µg/mL,> 64 µg/mL,>64 µg/mL,1 µg/mL,2 µg/mL,0.5 µg/mL,–,–,–,–
"O=c1[nH]c(NCc2ccc(Cl)c(Cl)c2)nc2c(Br)nn(CCOCCO)c12 [Compound 52, 3-bromo-5-((3,4-dichlorobenzyl)amino)-1-(2-(2-hydroxyethoxy)ethyl)-1H-pyrazolo[4,3-d]pyrimidin-7(6H)-one]",4 µg/mL,4 µg/mL,16 µg/mL,> 64 µg/mL,>64 µg/mL,1 µg/mL,2 µg/mL,2 µg/mL,–,–,–,–
"Cn1nc(F)c2nc(NCc3ccc(Cl)c(Cl)c3)[nH]c(=O)c21 [Compound 53, 5-((3,4-dichlorobenzyl)amino)-3-fluoro-1-methyl-1H-pyrazolo[4,3-d]pyrimidin-7(6H)-one]",2 µg/mL,0.5 µg/mL,2 µg/mL,> 64 µg/mL,64 µg/mL,0.5 µg/mL,0.5 µg/mL,0.5 µg/mL,–,–,≤ 1 µg/mL,≤ 1 µg/mL
"O=c1[nH]c(NCc2ccc(Cl)c(Cl)c2)nc2c(F)n[nH]c12 [Compound 54, 5-[(3,4-Dichlorophenyl)methylamino]-3-fluoro-1,6-dihydropyrazolo[4,3-d]pyrimidin-7-one]",16 µg/mL,8 µg/mL,32 µg/mL,> 64 µg/mL,>64 µg/mL,4 µg/mL,8 µg/mL,4 µg/mL,–,–,–,–
"O=c1[nH]c(NCc2ccc(Cl)c(Cl)c2)nc2c(Cl)n[nH]c12 [Compound 55, 3-Chloro-5-[(3,4-dichlorophenyl)methylamino]-1,6-dihydropyrazolo[4,3-d]pyrimidin-7-one]",8 µg/mL,4 µg/mL,8 µg/mL,> 64 µg/mL,64 µg/mL,2 µg/mL,4 µg/mL,4 µg/mL,–,–,–,–
"Cl.O=c1[nH]c(NCc2ccc(Cl)c(Cl)c2)nc2cnn(CCN3CCOCC3)c12 [Compound 57, 5-((3,4-dichlorobenzyl)amino)-1-(2-morpholinoethyl)-1H-pyrazolo[4,3-d]pyrimidin-7(6H)-one hydrochloride]",4 µg/mL,2 µg/mL,2 µg/mL,> 64 µg/mL,>64 µg/mL,1 µg/mL,2 µg/mL,1 µg/mL,–,–,–,–
"CN1CCN(CCn2ncc3nc(NCc4ccc(Cl)c(Cl)c4)[nH]c(=O)c32)CC1 [Compound 58, 5-((3,4-Dichlorobenzyl)amino)-1-(2-(4-methylpiperazin-1-yl)ethyl)-1H-pyrazolo[4,3-d]pyrimidin-7(6H)-one]",8 µg/mL,8 µg/mL,4 µg/mL,> 64 µg/mL,>64 µg/mL,2 µg/mL,16 µg/mL,4 µg/mL,–,–,–,–
"O=c1[nH]c(NCc2ccc(Cl)c(Cl)c2)nc2cnn(CCN3CCS(=O)(=O)CC3)c12 [Compound 59, 5-((3,4-Dichlorobenzyl)amino)-1-(2-(1,1-dioxidothiomorpholino)ethyl)-1H-pyrazolo[4,3-d]pyrimidin-7(6H)-one]",8 µg/mL,8 µg/mL,4 µg/mL,> 64 µg/mL,>64 µg/mL,4 µg/mL,8 µg/mL,2 µg/mL,–,–,–,–
"CN1CCN(CCn2ncc3nc(NCc4ccc(Cl)c(Cl)c4)[nH]c(=O)c32)CC1=O [Compound 60, 5-((3,4-Dichlorobenzyl)amino)-1-(2-(4-methyl-3-oxopiperazin-1-yl)ethyl)-1H-pyrazolo[4,3-d]pyrimidin-7(6H)-one]",8 µg/mL,8 µg/mL,4 µg/mL,> 64 µg/mL,>64 µg/mL,4 µg/mL,8 µg/mL,2 µg/mL,–,–,–,–
"CNCCn1ncc2nc(NCc3ccc(Cl)c(Cl)c3)[nH]c(=O)c21 [Compound 61, 5-((3,4-Dichlorobenzyl)amino)-1-(2-(methylamino)ethyl)-1H-pyrazolo[4,3-d]pyrimidin-7(6H)-one]",32 µg/mL,64 µg/mL,16 µg/mL,> 64 µg/mL,>64 µg/mL,8 µg/mL,64 µg/mL,16 µg/mL,–,–,–,–
"CC(C)(C)NCCn1ncc2nc(NCc3ccc(Cl)c(Cl)c3)[nH]c(=O)c21 [Compound 62, 1-[2-(tert-Butylamino)ethyl]-5-[(3,4-dichlorophenyl)methylamino]-6H-pyrazolo[4,3-d]pyrimidin-7-one]",8 µg/mL,16 µg/mL,4 µg/mL,> 64 µg/mL,32 µg/mL,4 µg/mL,16 µg/mL,8 µg/mL,–,–,–,–
